Results: US20210283163A1, “COMPOSITIONS AND METHODS FOR THE TREATMENT OF ACUTE AND CHRONIC PRURITIS” (Duke University, priority 2018, published 2021)

Experiments:
[1] = test system: mice; experiment: Evans blue extravasation, neurogenic inflammation in a hind paw; type: in vivo, mouse; conditions: intraplantar, 10 μL; capsaicin 1 mM, AITC 5 mM, miR-711 1 mM
Method: Evans Blue Extravasation. To examine neurogenic inflammation in a hind paw (Han et al., Neuron 2016, 92, 1279-1293), mice were anesthetized with 5% isoflurane. Evans blue (50 mg/kg body weight) was given intravenously 10 min before neurogenic irritant application. […] Evans blue was extracted from the tissues by incubation in 400 μL formamide at 37° C. for 48 hr. Evans blue was quantified by measuring the optical density of the formamide extract at 620 nm. Absorbance was normalized to per gram of tissue weight.

[2] = test system: mTRPA1 mutants (M1-M13); experiment: Whole-cell patch clamp in CHO cells transfected with mutant mTrpa1 cDNAs (M1-M13); type: cell-based, mouse; conditions: for effect of mutations on induced currents: M2, M3, M4, M5, and M10; for induced currents in mutants: mutants M1, M6, M7, M8, M9, and M12, AITC 50 μM, miR-711 10 μM
Method: Constructs. The cDNAs of mouse pcDNA3.1-Trpa1, pcDNA3.1-Trpv1, pcDNA3.1-Trpv2, pcDNA3.1-Trpv3, and pcDNA3.1-Trpv4 were kindly provided Dr. Sun Work Hwang from Korea University. Mouse Trpa1 cDNA was subcloned into pCGN-HA backbone (Addgene) using In-Fusion HD Cloning Kit (Clontech Laboratories, CA). Q5 Site-Directed Mutagenesis Kit was used to generate mTrpa1 mutant (M1-M13) based on pCGN-mTrpa1.
Cell Culture and Transfection. CD4^+ Myla cell line was cultured in RPMI 1640 media (GIBCO), supplemented with 2 mM Glutamine (GIBCO), 100 U/mL IL-2 (Sigma), 100 U/mL IL-4 (Sigma), and 10% human AB serum (Sigma). HuT 102 cell line was cultured in RPMI 1640 supplemented with pyruvate, HEPES, and 10% (v/v) fetal bovine serum (HyClone). HEK293-hTRPA1 stable cell line was cultured in MEM (GIBCO) containing 2 mM Glutamine, 4 μg/mL Blasticidin, 10% FBS (v/v). B16 and CHO cells were cultured in high glucose (4.5 g/L) Dulbecco's Modified Eagle's Medium (GIBCO) containing 10% (v/v) fetal bovine serum (GIBCO). Culture media were supplemented with 50 units/mL of penicillin and 50 μg/mL streptomycin, and cultures were maintained with 5% CO2 in 37° C. incubator. Transfection (2 μg cDNA) was performed with Lipofectamine™ 2000 Reagent (Invitrogen) at 80% confluency and the transfected cells were cultured in the same media for 48 hr before electrophysiological and biochemical studies.
Whole-Cell Patch Clamp Recordings in HEK293 Cells, CHO Cells, and DRG Neurons. Whole-cell patch clamp recordings were performed at room temperature using an Axopatch-200B amplifier (Axon Instruments) with a Digidata 1440B (Axon Instruments). In this study, we only examined small-diameter mouse DRG neurons (<25 μM) and small-diameter human DRG neurons (<55 μM). The patch pipettes were pulled from borosilicate capillaries (World Precision Instruments) using a P-97 Flaming/Brown micropipette puller (Sutter Instrument). Pipette resistance was 4-6 MΩ for whole-cell and outside-out recording. For inward current recordings in mouse and human DRG neurons, HEK293 cells, and CHO cells, the internal solution contains (in mM): 140 CsCl, 10 EGTA, 10 HEPES, and 2 Mg-ATP, adjusted to pH 7.3 with CsOH. Whole cell recordings were performed in an extracellular solution that contains (in mM): 140 NaCl, 5 KCl, 2 MgCl2, 10 HEPES, and 10 glucose, adjusted to pH 7.4 with NaOH and osmolarity to 300-310 mOsm. […] Action potential recordings were performed in small-diameter DRG neurons, with the following solutions: i) internal pipette solution contains: 126 mM K-gluconate, 10 mM NaCl, 1 mM MgCl2, 10 mM EGTA, 10 mM HEPES and 2 mM Na-ATP, adjusted to pH 7.4 with KOH and osmolarity to 295-300 mOsm), and ii) extracellular solution contains: 140 mM NaCl, 5 mM KCl, 2 mM MgCl2, 2 mM CaCl2, 10 mM HEPES, 10 mM glucose, adjusted to pH 7.4 with KOH.

[3] = test system: mice; experiment: Pain tests for mechanical and thermal sensitivity after intraplantar injection; type: in vivo, mouse; conditions: miR-711 1 mM, AITC 10 mM, 10 μL
Method: Pain Tests for Mechanical and Thermal Sensitivity. Mice were habituated to the environment for at least 2 days before the testing. All the behaviors were tested blindly. […] For testing mechanical sensitivity, we confined mice in boxes (14×18×12 cm) placed on an elevated metal mesh floor and stimulated their hind paws with a series of von Frey hairs with logarithmically increasing stiffness (0.16-2.00 g, Stoelting), presented perpendicularly to the central plantar surface. We determined the 50% paw withdrawal threshold by Dixon's up-down method (Dixon, Annu. Rev. Pharmacol. Toxicol. 1980, 20, 441-462). Thermal sensitivity was tested using Hargreaves radiant heat apparatus (Hargreaves et al., Pain 1988, 32, 77-88) (IITC Life Science). For the radiant heat test, the basal paw withdrawal latency was adjusted to 10-15 s, with a cutoff of 25 s to prevent tissue damage.

Compound	neurogenic inflammation in hind paws (Evans blue test) [1]	AITC-induced currents in mutants ([2]; M2, M3, M4, M5, M10, M11, and M13)	effect of mutations on induced currents [2]	induced currents in mutants [2]	heat hyperalgesia [3]	mechanical allodynia [3]
C=CCN=C=S [AITC]	elicited robust neurogenic inflammation	unaltered	no effects	substantial reductions	elicited marked hyperalgesia and allodynia	elicited marked hyperalgesia and allodynia
miR-711: mmu-miR-711: gggacccggggagagauguaag (SEQ ID NO: 5) (GGGACCCGGGGAGAGAUGUAAG; chemistry not given here)	failed to elicit neurogenic inflammation	–	no effects	substantial reductions	failed to induce	failed to induce
